These results are taken from patent publication US8523975B2, “Salts of mineral nutrients stabilized with amino acids and/or ammonium salt, products and food supplements that contain them and procedures for obtaining same” (priority 2005, dated 2013).

The conditions of data set [1]: reference data (Merck Index XII / manufacturer Bartek Inc.); cited from earlier work.
The nature of data set [2]: Comparative data of solubility in water. Particulars: 25° C., solubility expressed as iron.

SMILES strings stand for the structures.

For `O=C([O-])/C=C/C(=O)[O-].[Fe+2]` [Ferrous fumarate], in data set [1], the “Solubility in water at 25° C. (non-stabilized salt)” value is given as 1.4 grams per liter. The “Fe++ (ferrous) allowed per liter of water” value in data set [2] is 0.460 gr Fe++ per liter of water.
In the case of `O.O.O.O=C([O-])/C=C/C(=O)[O-].[Ca+2]` [Calcium Fumarate 3H2O], the “Solubility in water at 25° C. (non-stabilized salt)” value in data set [1] is recorded as 1.22 grams per liter.
